Laboratory results: patent US20260001914A1, “MACROCYCLIC PEPTIDES TARGETING KRAS” (Merck Sharp & Dohme LLC, priority 2022, published 2026)
*1 amine or outer side, *2 acyl side, *3 side chain or, on linkers, in order; H or OH if unused. Where a SMILES comes first, the peptide text is derived from it. Bridges are numbered along the chain shown (N, C = ends). [ ]: non-standard residue; d: D form. cBu(1-CO,cis-3-CH2NH) = O=C([C@H]1C[C@@H](CN[*:1])C1)[*:2]; NMeNva(5-imidazol-1-yl) = CN[C@@H](CCCn1ccnc1)C(=O)O; Phe(4-guanidino) = N=C(N)Nc1ccc(C[C@H](N)C(=O)O)cc1; X72 = CC1(C)NC(=N)N(CCC[C@H](N[*:1])C(=O)[*:2])C1=O; X60 = O=C([C@H](Cc1ccc(NC2=NCCN2)cc1)N[*:1])[*:2]; X55 = O=C([C@H](Cc1coc(-c2ccccc2)n1)N[*:1])[*:2]; Ala(pyrimidin-5-yl) = N[C@@H](Cc1cncnc1)C(=O)O; NMe3Pal(6-Me) = CN[C@@H](Cc1ccc(C)nc1)C(=O)O; NMePhe(3-Me) = CN[C@@H](Cc1cccc(C)c1)C(=O)O; X37 = O=C([C@H](Cc1cnc(F)cc1F)N[*:1])[*:2]; Lys(N3) = [N-]=[N+]=NCCCC[C@H](N)C(=O)O; Phe(4-F) = N[C@@H](Cc1ccc(F)cc1)C(=O)O; X32 = CS(=O)(=O)CCCN(CC(=O)[*:2])[*:1]; X40 = CC(C)(F)C[C@H](N[*:1])C(=O)[*:2]; NHCH2CH2SCH2CO = O=C(CSCCN[*:1])[*:2]; Phe(2-F) = N[C@@H](Cc1ccccc1F)C(=O)O; NMe3Pal = CN[C@@H](Cc1cccnc1)C(=O)O; X1 = O=C(C12CC(CN[*:1])(C1)C2)[*:2]; Aha = [N-]=[N+]=NCC[C@H](N)C(=O)O; NMeOrn(Me) = CNCCC[C@H](NC)C(=O)O; Ala(cPr) = N[C@@H](CC1CC1)C(=O)O; NMeF = CN[C@@H](Cc1ccccc1)C(=O)O; PhLac = O=C(O)[C@@H](O)Cc1ccccc1; X4 = O=C([C@H](CCCF)N[*:1])[*:2]; 3Pal = N[C@@H](Cc1cccnc1)C(=O)O; 4Pal = N[C@@H](Cc1ccncc1)C(=O)O; d3Pal = N[C@H](Cc1cccnc1)C(=O)O; 3Thi = N[C@@H](Cc1ccsc1)C(=O)O; Ahp(2) = CCCCC[C@H](N)C(=O)O; Cba = N[C@@H](CC1CCC1)C(=O)O; hLeu = CC(C)CC[C@H](N)C(=O)O; hSer = N[C@@H](CCO)C(=O)O; αMeC = C[C@](N)(CS)C(=O)O; NMeA = CN[C@@H](C)C(=O)O; Nle = CCCC[C@H](N)C(=O)O; Nva = CCC[C@H](N)C(=O)O

The molecules below were run against KRAS-G12D protein (Homo sapiens, UniProt P01116, G12D) (assay: SOS-mediated nucleotide exchange assay (BODIPY-GDP / Tb-streptavidin TR-FRET)).
Type: biochemical

Chain of KRAS-G12D protein (P01116 1-188 isoform P01116-2 G12D): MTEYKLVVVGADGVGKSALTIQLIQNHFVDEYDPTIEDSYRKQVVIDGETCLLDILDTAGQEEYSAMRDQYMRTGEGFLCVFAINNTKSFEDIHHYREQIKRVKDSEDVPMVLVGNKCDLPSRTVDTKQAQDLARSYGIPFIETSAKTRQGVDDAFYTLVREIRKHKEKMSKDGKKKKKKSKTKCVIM

Compound	EC50
CON=C1C[C@@H](Cc2ccccc2)C(=O)N(C)[C@@H](C)C(=O)N[C@@H](Cc2cncnc2)C(=O)N[C@@H](CC2CC2)C(=O)N[C@@H](Cc2ccccc2F)C(=O)N[C@@H](CCC(C)(F)F)C(=O)N(C)[C@@H](Cc2ccccc2)C(=O)NCC23CC1(C2)C3 (single isomer, unassigned) [compound 177, cyclo(CPhe-NMeA-PyrimAla-cPrA-Phe2F-Nle3F2-NMeF-MeOximamBCP)]	51 nM
C[C@H]1C(=O)N[C@@H](Cc2cncnc2)C(=O)N[C@@H](CC2CC2)C(=O)N[C@@H](Cc2ccccc2F)C(=O)N[C@@H](CC2CC2)C(=O)N(C)[C@@H](Cc2ccccc2)C(=O)NCC23CC(C2)(C3)C(=O)O[C@@H](Cc2ccccc2)C(=O)N1C [compound 267, cyclo(FLac-NMeA-PyrimAla-cPrA-Phe2F-cPrA-NMeF-amBCP)] (cyclo([Ala(cPr)][NMeF][X1][PhLac][NMeA][Ala(pyrimidin-5-yl)][Ala(cPr)][Phe(2-F)]))	471 nM
CC(C)CC[C@@H]1NC(=O)[C@H](Cc2ccccc2F)NC(=O)[C@H](CC(C)(C)F)NC(=O)[C@H](Cc2cncnc2)NC(=O)[C@H](C)N(C)C(=O)[C@H](Cc2ccccc2)OC(=O)C23CC(CNC(=O)[C@H](Cc4ccccc4)N(C)C1=O)(C2)C3 [compound 136, cyclo(FLac-NMeA-PyrimAla-Leu3F-Phe2F-hL-NMeF-amBCP)] (cyclo([NMeA][Ala(pyrimidin-5-yl)][X40][Phe(2-F)][hLeu][NMeF][X1][PhLac]))	114 nM
CCCC[C@@H]1NC(=O)[C@H](C(C)C)NC(=O)[C@H](CC2CCC2)NC(=O)[C@H](Cc2cccnc2)NC(=O)[C@H](CCN=[N+]=[N-])NC(=O)[C@H](Cc2ccccc2)NC(=O)C23CC(CNC(=O)[C@H](Cc4cccnc4)N(C)C1=O)(C2)C3 [compound 113, cyclo(F-DabN3~3Pal-cBuA-V-Nle-NMe3Pal-amBCP)] (cyclo(F[Aha][3Pal][Cba]V[Nle][NMe3Pal][X1]))	6560 nM
CCCC[C@@H]1NC(=O)[C@H](Cc2ccsc2)NC(=O)[C@H](C)N(C)C(=O)[C@H](Cc2ccccc2)OC(=O)C23CC(CNC(=O)[C@H](Cc4ccccc4)N(C)C(=O)[C@H](CCCC)NC(=O)[C@H](Cc4ccccc4F)NC1=O)(C2)C3 [compound 318, cyclo(FLac-NMeA-3Thi-Nle-Phe2F-Nle-NMeF-amBCP)] (cyclo([3Thi][Nle][Phe(2-F)][Nle][NMeF][X1][PhLac][NMeA]))	527 nM
CCCC[C@@H]1NC(=O)[C@H](Cc2cncnc2)NC(=O)[C@H](C)N(C)C(=O)[C@H](Cc2ccccc2)OC(=O)C23CC(CNC(=O)[C@H](Cc4cccc(C)c4)N(C)C(=O)[C@H](CCCC)NC(=O)[C@H](Cc4ccccc4F)NC1=O)(C2)C3 [compound 172, cyclo(FLac-NMeA-PyrimAla-Nle-Phe2F-Nle-NMePhe3Me-amBCP)] (cyclo([NMeA][Ala(pyrimidin-5-yl)][Nle][Phe(2-F)][Nle][NMePhe(3-Me)][X1][PhLac]))	6.03 nM
CCC[C@@H]1NC(=O)[C@H](Cc2ccc(O)cc2)NC(=O)[C@H](CC(C)C)NC(=O)[C@H](Cc2ccc(O)cc2)NC(=O)[C@H](CCCNC(=N)N)NC(=O)[C@H](Cc2ccccc2)NC(=O)CSCCNC(=O)[C@H](Cc2ccccc2)N(C)C1=O [compound 83, cyclo(F-R-Y-L-Y-Nva-NMeF-Cysteamine-ClAc)]	6350 nM
CCCC[C@@H]1NC(=O)[C@H](Cc2coc(-c3ccccc3)n2)NC(=O)[C@H](C)N(C)C(=O)[C@H](Cc2ccccc2)OC(=O)C23CC(CNC(=O)[C@H](Cc4ccccc4)N(C)C(=O)[C@H](CCCC)NC(=O)[C@H](Cc4ccccc4F)NC1=O)(C2)C3 [compound 307, cyclo(FLac-NMcA-AlaOxz2Ph-Nle-Phe2F-Nle-NMeF-amBCP)] (cyclo([NMeA][X55][Nle][Phe(2-F)][Nle][NMeF][X1][PhLac]))	155 nM
CCCC[C@@H]1NC(=O)[C@H](Cc2ccccc2F)NC(=O)[C@H](CC2CCC2)NC(=O)[C@@H](Cc2cccnc2)NC(=O)[C@H](CCCN2C(=N)NC(C)(C)C2=O)NC(=O)[C@H](Cc2ccccc2)NC(=O)C23CC(CNC(=O)[C@H](Cc4cccnc4)N(C)C1=O)(C2)C3 [compound 105, cyclo(F-baceNva-d3Pal-cBuA-Phe2F-Nle-NMe3Pal-amBCP)] (cyclo(F[X72][d3Pal][Cba][Phe(2-F)][Nle][NMe3Pal][X1]))	7.56 nM
CCCC[C@@H]1NC(=O)[C@H](CCCCN=[N+]=[N-])NC(=O)[C@H](CCCNC(=N)N)NC(=O)[C@H](Cc2ccc(F)cc2)NC(=O)CSCCNC(=O)[C@H](Cc2ccccc2)N(C)C(=O)[C@H](CCCC)NC(=O)[C@H](Cc2ccc(O)cc2)NC1=O [compound 89, cyclo(Phe4F-R-LysN3-Nle-Y-Nle-NMeF-Cysteamine-ClAc)] (cyclo([Lys(N3)][Nle]Y[Nle][NMeF][NHCH2CH2SCH2CO][Phe(4-F)]R))	3530 nM
CCC[C@@H]1NC(=O)[C@H](Cc2ccc(OC)cc2)NC(=O)[C@H](CC(C)C)NC(=O)[C@H](Cc2ccncc2)NC(=O)[C@H](CCCNC(=N)N)NC(=O)[C@H](Cc2ccc(F)cc2)NC(=O)CSC[C@H](C(=O)NCC(=O)NCC(=O)O)NC(=O)[C@H](Cc2ccccc2)N(C)C1=O [compound 66, cyclo(Phe4F-R-4Pal-L-TyrOMe-Nva-NMeF-dC6-ClAc)] ({CH2CO}-[Phe(4-F)]R[4Pal]LY(Me)[Nva][NMeF][dC]GG-OH; thioether N-8)	369 nM
CCCCC[C@@H]1NC(=O)[C@H](Cc2ccc(OC)cc2)NC(=O)[C@H](CC2CCC2)NC(=O)[C@H](Cc2cncnc2)NC(=O)[C@H](CCCNC)N(C)C(=O)[C@H](Cc2ccccc2)NC(=O)CSC[C@@](C)(C(N)=O)NC(=O)[C@H](Cc2ccc(C)nc2)N(C)C1=O [compound 394, cyclo(F-NMeOmMe-PyrimAla-cBuA-TyrOMe-Ahp-NMe3Pal4Me-aMeCl-ClAc)] ({CH2CO}-F[NMeOrn(Me)][Ala(pyrimidin-5-yl)][Cba]Y(Me)[Ahp(2)][NMe3Pal(6-Me)][αMeC]-NH2; thioether N-8)	65.8 nM
CC(C)CC[C@@H]1NC(=O)[C@H](Cc2ccccc2F)NC(=O)[C@H](CCCF)NC(=O)[C@H](Cc2cncnc2)NC(=O)[C@H](C)N(C)C(=O)[C@H](Cc2ccccc2)OC(=O)C23CC(CNC(=O)[C@H](Cc4ccccc4)N(C)C1=O)(C2)C3 [compound 133, cyclo(FLac-NMeA-PyrimAla-NvaF-Phe2F-hL-NMeF-amBCP)] (cyclo([NMeA][Ala(pyrimidin-5-yl)][X4][Phe(2-F)][hLeu][NMeF][X1][PhLac]))	7.79 nM
CCCCC[C@@H]1NC(=O)[C@H](Cc2ccc(OC)cc2)NC(=O)[C@H](CC2CCC2)NC(=O)[C@H](Cc2ccn(C)n2)NC(=O)[C@H](CCCNC(=N)N)NC(=O)[C@H](Cc2ccccc2)NC(=O)CSC[C@@](C)(C(N)=O)NC(=O)[C@H](Cc2ccccc2)N(C)C1=O [compound 362, cyclo(F-R-MePyzAla-cBuA-TyrOMe-Ahp-NMeF-aMeCl-ClAc)]	1810 nM
CCCCC[C@@H]1NC(=O)[C@H](Cc2ccc(OC)cc2)NC(=O)[C@H](CC2CCC2)NC(=O)[C@H](Cc2ccc(NC(=N)N)cc2)NC(=O)[C@H](CCCNC)N(C)C(=O)[C@H](Cc2ccccc2)NC(=O)CSC[C@@](C)(C(N)=O)NC(=O)[C@H](Cc2ccccc2)N(C)C1=O [compound 385, cyclo(F-NMeOrnMe-Phe4Gn-cBuA-TyrOMe-Ahp-NMeF-aMeCl-ClAc)] ({CH2CO}-F[NMeOrn(Me)][Phe(4-guanidino)][Cba]Y(Me)[Ahp(2)][NMeF][αMeC]-NH2; thioether N-8)	19.7 nM
CCCCC[C@@H]1NC(=O)[C@H](Cc2ccc(OC)cc2)NC(=O)[C@H](CC2CCC2)NC(=O)[C@H](Cc2ccc(NC(=N)N)cc2)NC(=O)CN(CCCS(C)(=O)=O)C(=O)[C@H](Cc2ccccc2)NC(=O)CSC[C@@](C)(C(N)=O)NC(=O)[C@H](Cc2ccccc2)N(C)C1=O [compound 389, cyclo(F-Mspg-Phe4Gn-cBuA-TyrOMe-Ahp-NMeF-aMeCl-ClAc)] ({CH2CO}-F[X32][Phe(4-guanidino)][Cba]Y(Me)[Ahp(2)][NMeF][αMeC]-NH2; thioether N-8)	441 nM
CCCC[C@@H]1NC(=O)[C@H](Cc2ccccc2F)NC(=O)[C@H](CC2CCC2)NC(=O)[C@@H](Cc2cccnc2)NC(=O)[C@H](CCCNC(=N)N)NC(=O)[C@H](Cc2ccccc2)NC(=O)C23CC(CNC(=O)[C@H](Cc4cccnc4)N(C)C1=O)(C2)C3 [compound 103, cyclo(F-R-d3Pal-cBuA-Phe2F-Nle-NMe3Pal-amBCP)] (cyclo(FR[d3Pal][Cba][Phe(2-F)][Nle][NMe3Pal][X1]))	3.19 nM
CCCC[C@@H]1NC(=O)[C@H](Cc2ccc(O)cc2)NC(=O)[C@H](CCOC)NC(=O)[C@H](Cc2ccc(O)cc2)NC(=O)[C@H](CCCNC(=N)N)NC(=O)[C@H](Cc2ccccc2)NC(=O)CSCCNC(=O)[C@H](Cc2ccccc2)N(C)C1=O [compound 77, cyclo(F-R-Y-hSOMe-Y-Nle-NMeF-Cysteamine-ClAc)] (cyclo(FRY[hSer](Me)Y[Nle][NMeF][NHCH2CH2SCH2CO]))	2850 nM
CCCC[C@@H]1NC(=O)[C@H](Cc2ccc(NC3=NCCN3)cc2)NC(=O)[C@H](CCCNC(=N)N)NC(=O)[C@H](Cc2ccccc2)NC(=O)[C@H]2C[C@@H](CNC(=O)[C@H](Cc3ccccc3)N(C)C(=O)[C@H](CCCC)NC(=O)[C@H](Cc3ccc(OC)cc3)NC1=O)C2 [compound 207, cyclo(F-R-Phe4Gnc2-Nle-TyrOMe-Nle-NMeF-c3amCblc)] (cyclo(FR[X60][Nle]Y(Me)[Nle][NMeF][cBu(1-CO,cis-3-CH2NH)]))	15.6 nM
CC(C)CC[C@@H]1NC(=O)[C@H](Cc2cnc(F)cc2F)NC(=O)[C@H](CC2CC2)NC(=O)[C@H](Cc2cncnc2)NC(=O)[C@H](C)N(C)C(=O)[C@H](Cc2ccccc2)OC(=O)C23CC(CNC(=O)[C@H](Cc4ccccc4)N(C)C1=O)(C2)C3 [compound 294, cyclo(FLac-NMeA-PyrimAla-cPrA-3Pal46F2-hL-NMeF-amBCP)] (cyclo([Ala(cPr)][X37][hLeu][NMeF][X1][PhLac][NMeA][Ala(pyrimidin-5-yl)]))	7 nM
CCCC[C@@H]1NC(=O)[C@H](Cc2cccnc2)NC(=O)[C@H](CCCn2ccnc2)N(C)C(=O)[C@H](Cc2ccccc2)N(C)C(=O)C23CC(CNC(=O)[C@H](Cc4cccnc4)N(C)C(=O)[C@H](CCCC)NC(=O)[C@H](Cc4ccccc4F)NC1=O)(C2)C3 [compound 264, cyclo(NMeF-NMeNvalmid-3Pal-Nle-Phe2F-Nle-NMe3Pal-amBCP)] (cyclo([3Pal][Nle][Phe(2-F)][Nle][NMe3Pal][X1][NMeF][NMeNva(5-imidazol-1-yl)]))	4030 nM
